Literature values as cited in patent US20090053275A1, “Foam/spray producing compositions and dispencing system therefor” (priority 2000, published 2009).

water solubility: not water soluble
SMILES: Oc1cc(Cl)ccc1Oc1ccc(Cl)cc1Cl [triclosan]
